Assay results as given in patent US8263791B2, “Method and reagent for protein analysis” (National Institute of Advanced Industrial Science and …, priority 2008, dated 2012).
“And” between values parts separate entries of the source, which are not always exact repeats. Equal values may be shown once.

How the values were obtained:
[1] = Measurement of maximum absorption wavelength and maximum fluorescence wavelength; format: physicochemical; details: 25 μg/mL in purified water
Description: Compound 1 and Compound 2 were separately dissolved in purified water at a concentration of 25 μg/mL. The absorption spectra at a wavelength ranging from 200 nm to 800 nm and the fluorescence spectra at a wavelength ranging from 450 nm to 600 nm were measured. The absorption spectra were measured using U3310 (Hitachi High-Technologies Corporation) and the fluorescence spectra were measured using RF-1500 (Shimadzu Corporation).

[2] = system: Protein Standard Mixture IV (ovotransferrin, albumin, ovalbumin, carboanhydrase, myoglobin, cytochrome C); assay: Protein detection on SDS-PAGE gel by staining after electrophoresis, varying solutions (I)/(II); details: 100 μg/mL
Description: (§1) Two (2) mL of a stock buffer (a mixture of purified water (4.2 mL), 0.5 M Tris-hydrochloric acid buffer (pH 8.6) (1.0 mL), glycerol (0.8 mL), 100 g/L sodium dodecyl sulfate (1.6 mL), and 2-mercaptoethanol (0.4 mL)) was added to 2 mg of a commercially available molecular weight marker (Protein Standard Mixture IV; Merck & Co., Inc.). The mixture was heated in boiling water for 2 minutes and then cooled. Thirty (30) μL each of the resultant was dispensed in a 0.5-mL microtube and then cryopreserved at −80° C. until the use thereof. A sample diluent (a mixture of purified water (3.8 mL), 0.5 M Tris-hydrochloric acid buffer (pH 8.6) (1.0 mL), glycerol (0.8 mL), 100 g/L sodium dodecyl sulfate (1.6 mL), and 5 g/L bromophenol blue (0.8 mL)) was added to the thawed molecular weight marker, so that a dilution series with protein concentrations ranging from 0.4 ng/μL to 200 ng/μL was prepared.
(§2) The marker contained, in terms of mass, equal amounts of ovotransferrin (78 kDa), albumin (66.3 kDa), ovalbumin (42.7 kDa), carboanhydrase (30 kDa), myoglobin (16.9 kDa), and cytochrome C (12.4 kDa).
(§3) • Electrophoresis apparatus: RAPIDAS-Mini-Slab electrophoresis chamber AE6450 (ATTO Corporation) • Polyacrylamide gel: Multigel II mini 10/20 (13W) (COSMO BIO Co., Ltd.) • Buffer for electrophoresis: 27.2 mM Tris (hydroxymethyl) aminomethane, 192 mM glycine, 3.5 mM Sodium dodecyl sulfate (pH 8.3) • Fluorescence imaging analyzer: Light capture II (ATTO Corporation)
Light source: green LED (center wavelength: 525 nm)
Cut filter: R-60 (550 nm).
(§4) Each sample of the dilution series prepared in (1) above was applied to a gel at 5 μL/well (lane 1: 167 ng of protein/band; lane 2: 83.3 ng/band; lane 3: 41.7 ng/band; lane 4: 20.8 ng/band; lane 5: 10.4 ng/band; lane 6: 5.2 ng/band; lane 7: 2.6 ng/band; lane 8: 1.3 ng/band; lane 9: 0.7 ng/band; and lane 10: 0.4 ng/band) and then subjected to electrophoresis with constant current of 30 mA for 45 minutes.
(§5) After electrophoresis, the gel was immediately immersed in a solution (I) (purified water, 1% Tween80 aqueous solution, or 1% Tween20 aqueous solution) for a predetermined period of time (20 minutes or 30 minutes). Subsequently, the gel was transferred to another container and then a buffer (purified water/25 mM phosphate buffer (pH 2.5)/methanol=45/45/10 (v/v)) in which Compound 1 (100 μg/mL) had been dissolved was added. After being left to stand for 10 minutes, the gel was transferred to another container and then immersed in a solution (II) (purified water, 1% Tween80 aqueous solution, or 1% Tween20 aqueous solution) for decoloration.

[3] = system: Protein Standard Mixture IV (ovotransferrin, albumin, ovalbumin, carboanhydrase, myoglobin, cytochrome C); assay: Evaluation of protein detection using Compound 1 and Compound 2 (staining after electrophoresis, Tween80); parameters: key to Detection: +: All bands could be detected.; −: At least one band could not be detected; details: for Detection / Detection limit (protein per band that could be detected): compound 60 μg/mL; for Detection limit (protein per band that could be detected): 1% Tween80 before and after staining
Description: as §1, §2, §3, §4
(§6) Protein detection was carried out using Compound 1 and Compound 2 synthesized in Example 1 under analysis conditions described in Example 3. After electrophoresis, the gel was first immersed in 1% Tween80 aqueous solution for 20 minutes and then immersed in a buffer containing Compound 1 (60 μg/mL) or Compound 2 (60 μg/mL) for 10 minutes. Subsequently, the gel was transferred to and immersed in a container containing a 1% Tween80 aqueous solution for 30 minutes. […] The total time needed for treatment was 60 minutes. The gel was analyzed using a fluorescence imaging analyzer. When Compound 1 was used, bands containing 2.6 ng or more of proteins could be detected. Compared with the result, the detection limit was 20 ng in the case of Compound 2.

[4] = system: Protein Standard Mixture IV (ovotransferrin, albumin, ovalbumin, carboanhydrase, myoglobin, cytochrome C); assay: Protein detection with staining carried out during electrophoresis; parameters: key to Detection: +: All bands could be detected.; −: At least one band could not be detected; details: compound 15 μg/mL in electrophoresis buffer
Description: Compound 1 or Compound 2 were dissolved in a buffer for electrophoresis (27.2 mM Tris (hydroxymethyl)aminomethane, 192 mM glycine, and 3.5 mM sodium dodecyl sulfate (pH 8.3)) at a concentration of 15 μg/mL. With the use of the above buffer, the other conditions identical to those described in Example 3 were employed to carry out electrophoresis. After completion of electrophoresis, the gel was transferred to a container containing 1% Tween80 aqueous solution, left to stand for 40 minutes, and then analyzed using a fluorescence imaging analyzer. When Compound 1 was used, bands containing 5.2 ng or more of a protein could be detected.

[5] = Water solubility / precipitation in the staining solution; format: physicochemical
Description: as §5, §6
(§7) After electrophoresis, the gel was immediately immersed in distilled water for 20 to 30 minutes. Subsequently, the gel was transferred to another container and then a staining solution (distilled water:methanol=1:1 (v/v)) in which Compound 3 (100 μg/mL) had been dissolved was added. After 30 minutes of immersion, the gel was transferred to another container and then immersed in a wash solution (water:methanol=90:10 (v/v)) for decoloration. The gel was observed using a fluorescence imaging analyzer.

[6] = target: T1, BSA (Bos taurus, UniProt P02769); assay: Evaluation of protein detection using Compound 3; parameters: key to Detection: +: Band could be detected.; −: No band could be detected
T1 construct: purchased PIERCE
T1 sequence (P02769 25-607): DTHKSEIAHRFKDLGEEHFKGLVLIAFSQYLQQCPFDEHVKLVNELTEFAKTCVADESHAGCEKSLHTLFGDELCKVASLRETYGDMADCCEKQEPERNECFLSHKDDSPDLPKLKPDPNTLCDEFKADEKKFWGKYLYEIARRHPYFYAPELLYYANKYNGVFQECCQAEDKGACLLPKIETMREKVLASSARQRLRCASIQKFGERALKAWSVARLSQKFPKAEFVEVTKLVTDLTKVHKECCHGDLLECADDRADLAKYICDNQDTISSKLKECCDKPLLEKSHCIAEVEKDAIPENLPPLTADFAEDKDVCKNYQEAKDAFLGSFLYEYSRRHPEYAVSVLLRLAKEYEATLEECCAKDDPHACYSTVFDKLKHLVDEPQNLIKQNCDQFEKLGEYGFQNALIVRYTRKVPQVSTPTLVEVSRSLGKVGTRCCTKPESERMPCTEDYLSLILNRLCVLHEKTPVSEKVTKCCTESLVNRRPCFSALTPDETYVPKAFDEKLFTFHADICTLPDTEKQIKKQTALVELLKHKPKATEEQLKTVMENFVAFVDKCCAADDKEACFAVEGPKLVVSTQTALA
Description: Protein samples were prepared as follows: Sample buffer (0.0625 M Tris-HCl (pH 6.8), 5% 2-mercaptoethanol, 2% SDS, 20% glycerol, and 0.005% BPB) was added to 2.0 mg/mL commercially available BSA (PIERCE). to dilute it to concentrations of 200, 60, 30, 12, 6, 3, and 0.2 ng/μL, respectively. These protein samples were heated at 80° C. for 5 minutes and then left to stand to cool.
Conditions for electrophoresis are as follows: • Electrophoresis apparatus: ERICA XVE-001C (DRC Co., Ltd.) • Polyacrylamide gel: XV PANTERA Gel (DRC Co., Ltd.) • Buffer for electrophoresis: electrophoresis buffer attached to XV PANTERA Gel • Fluorescence imaging analyzer: LS400 (TECAN GROUP LTD) • Excitation wavelength: 543 nm; detection wavelength: 590 nm.
Each of the above prepared samples was applied to a gel at 5 μL/well (1000, 300, 150, 60, 30, 15, and 1 ng/band, respectively), followed by electrophoresis.
as §7

Row | Structure (SMILES) | Excitation wavelength for maximum fluorescence [1] [nm] | Maximum absorption wavelength [1] | Maximum fluorescence wavelength [1] [nm] | Detection ([3]; Lane 1, protein 167 ng/band) | Detection ([3]; Lane 2, protein 83.3 ng/band) | Detection ([3]; Lane 3, protein 41.7 ng/band) | Detection ([3]; Lane 4, protein 20.8 ng/band) | Detection ([3]; Lane 5, protein 10.4 ng/band) | Detection ([3]; Lane 6, protein 5.2 ng/band) | Detection ([3]; Lane 7, protein 2.6 ng/band) | Detection ([3]; Lane 8, protein 1.3 ng/band) | Detection ([3]; Lane 9, protein 0.7 ng/band) | Detection ([3]; Lane 10, protein 0.4 ng/band) | Detection limit (protein per band that could be detected) [3] [ng] | Detection ([4]; Lane 1, protein 167 ng/band) | Detection ([4]; Lane 2, protein 83.3 ng/band) | Detection ([4]; Lane 3, protein 41.7 ng/band) | Detection ([4]; Lane 4, protein 20.8 ng/band) | Detection ([4]; Lane 5, protein 10.4 ng/band) | Detection ([4]; Lane 6, protein 5.2 ng/band) | other results
1 | N#CC(C#N)=C1C=C(/C=C/c2ccccc2S(=O)(=O)[O-])OC(/C=C/c2ccccc2S(=O)(=O)[O-])=C1.[Na+].[Na+] [Compound 1, 2,2′-(1E,1′E)-2,2′-(4-(dicyanomethylene)-4H-pyrane-2,6-diyl)bis(ethene-2,1-diyl)bis(sodium benzenesulfonate)salt] | 444 | 293 nm and 380 nm | 516 | + | + | + | + | + | + | + | − | − | − | ≥ 2.6 | + | + | + | + | + | + | Detection sensitivity ([2]; Conditions 1: solution (I) purified water, solution (II) purified water): 5 ng; Detection sensitivity ([2]; Conditions 2: solution (I) Tween80, solution (II) purified water): 5 ng; Detection sensitivity ([2]; Conditions 3: solution (I) purified water, solution (II) Tween80): 5 ng; Detection sensitivity ([2]; Conditions 4: solution (I) Tween80, solution (II) Tween80): 5 ng; Detection sensitivity ([2]; Conditions 5: solution (I) Tween20, solution (II) Tween20): 10 ng; Relationship between protein concentration of each band and fluorescence intensity ([3]; FIG. 2, all proteins of the marker): no differences due to protein type were observed; Detection ([4]; Lane 7, protein 2.6 ng/band): +; Detection ([4]; Lane 8, protein 1.3 ng/band): −; Detection ([4]; Lane 9, protein 0.7 ng/band): −; Detection ([4]; Lane 10, protein 0.4 ng/band): −; Protein per band that could be detected ([4]; 1% Tween80 40 minutes): ≥ 5.2 ng; Precipitation in the solutions during staining ([5]; 60 μg/mL in buffer, Example 4): no precipitation; Precipitation in the solutions during staining ([5]; 100 μg/mL in purified water/25 mM phosphate buffer (pH 2.5)/methanol=45/45/10): no precipitation
2 | CC1=CC(=C(C#N)C#N)C=C(/C=C/c2ccccc2S(=O)(=O)[O-])O1.[Na+] [Compound 2, (E)-2-(2-(4-(dicyanomethylene)-6-methyl-4H-pyrane-2-yl)vinyl)sodium Benzenesulfonate] | 440 | 388 nm | 511 | + | + | + | + | − | − | − | − | − | − | 20 | − | − | − | − | − | − | Detection ([4]; Lane 7, protein 2.6 ng/band): −; Detection ([4]; Lane 8, protein 1.3 ng/band): −; Detection ([4]; Lane 9, protein 0.7 ng/band): −; Detection ([4]; Lane 10, protein 0.4 ng/band): −; Protein detection (in words) ([4]; 1% Tween80 40 minutes): proteins other than cytochrome C could not be detected
3 | CC1=CC(=C(C#N)C#N)C=C(/C=C/c2ccc(O)c3ccccc23)O1 [Compound 3] |  |  |  |  |  |  |  |  |  |  |  |  |  |  |  |  |  |  |  |  | Sensitivity lower than that of the compound of the present invention [6]: ≥ 10 times; Detection ([6]; BSA 1 ng/band, compound 100 μg/mL): −; Detection ([6]; BSA 15 ng/band, compound 100 μg/mL): −; Detection ([6]; BSA 30 ng/band, compound 100 μg/mL): +; Detection ([6]; BSA 60 ng/band, compound 100 μg/mL): +; Detection ([6]; BSA 150 ng/band, compound 100 μg/mL): +; Detection ([6]; BSA 300 ng/band, compound 100 μg/mL): +; Detection ([6]; BSA 1000 ng/band, compound 100 μg/mL): +; Protein detection sensitivity ([6]; BSA, compound 100 μg/mL): 30 ng; False positive spots after washing step ([6]; wash solution water:methanol=90:10): insoluble matter adhering to the gel appeared as false positive spots; Solubility in water [5]: hardly soluble in water; Precipitation in the staining solution during staining ([5]; 100 μg/mL in distilled water:methanol=1:1): precipitated in the staining solution
